Measurements as given in patent US7488583B2, “Fragment complementation assays for G-protein-coupled receptors and their signaling pathways” (Odyssey Thera, Inc., priority 2003, dated 2009).
Entries after “also recorded” stand apart in the source; their conditions may differ. Non-standard residues stand in square brackets, D forms with d. Residues, ends and D or L forms follow the SMILES beside them. *: point of attachment. Nle = CCCC[C@H](N)C(=O)O; Cbz = O=C(OCc1ccccc1)*

What was measured:
[1] = tested on: association of beta-arrestin2 and ubiquitin; test: beta-arrestin2/ubiquitin PCA (ubiquitination of beta-arrestin2); type: cell-based; settings: for beta-arrestin2/ubiquitin assay fluorescence, positive pixel mean (PPM) as percent of control (FIG. 12): versus negative control (vehicle alone)
Source text: To illustrate another example of a novel assay constructed using the methods provided herein, we developed a protein-fragment complementation assay to measure the association of beta-arrestin2 and ubiquitin (see FIGS. 11-12) using the methods described here. Ubiquitin is a highly conserved 76-amino acid polypeptide. Since its discovery in the mid-1970s, ubiquitin has been associated with cellular house-keeping functions such as eliminating damaged proteins. It has recently become clear that ubiquitin is involved in a variety of other vital processes at different subcellular locations ranging from the plasma membrane to the nucleus, including cell-cycle progression, signal transduction, transcriptional regulation, receptor down-regulation, and endocytosis. Ubiquitin is covalently attached to proteins through an isopeptide bond between its carboxy-terminal glycine and the epsilon-amino group of lysines in the target protein. This attachment is catalyzed by enzymes that activate and ultimately conjugate the ubiquitin moiety to a lysine residue in the substrate. This can be followed by further additions of ubiquitin to specific lysine residues within the linked ubiquitin itself, resulting in a poly-ubiquitin chain. This covalent modification can be reversed by unique proteases specific for the iso-peptide linkage. Although ubiquitin is the best-characterized polypeptide modifier, other polypeptides (often referred to as Ubiquitin-like, or Ubl) are also conjugated to targets in analogous reactions. These ‘alternative’ modifiers, which differ from ubiquitin in sequence similarity but which are structurally similar to ubiquitin, include SUMO; Nedd8; Hub 1, ISG15 or UCRP; and Apg 12 (reviewed in Aguilar).
Previously, assays for ubiquitination have relied upon immunoblotting of proteins with anti-ubiquitin antibodies, or on labelling of proteins with a fluorophore-tagged ubiquitin polypeptide. […] FIGS. 11-12 show the results of the transient transfection of the PCA constructs. […] Since the process of ubiquitination targets proteins for degradation, we used ALLN (see Table 3 for concentration) to inhibit the proteasome activity of the cell in order to ensure that the arrestin/ubiquitin complex would accumulate in the cells and be detectable. […] The effects of Trichostatin A are particularly interesting in light of recent findings linking HDAC inhibition with the attenuation of cardiac hypertrophy induced by isoproterenol or by overexpression of proteins linked to cardiac growth and proliferation (Cardiac hypertrophy and histone deacetylase-dependent transcriptional repression mediated by the atypical homeodomain protein Hop; H. Kook, et al., J Clin Invest. 2003 September; 112(6):863-71). […]

[2] = target: T1, interaction of the beta-adrenergic receptor with beta-arrestin2 (Homo sapiens, UniProt P07550); type: cell-based; settings: HEK293T stable line, 480 minutes, concentrations of Table 3
T1 construct: (Gly-Gly-Gly-Gly-Ser)2 linker between receptor and YFP[2]; YFP[2]; (EYFP amino acids 159-239); expressed in transfected cells
Protocol: For the betaARR2/beta2AR, stable cell lines were generated.
Drug concentrations initially were chosen based on literature references and were further refined to ensure lack of toxicity in HEK293 cells, based on lactate dehydrogenase (LDH) toxicity analyses. All liquid handling steps were performed using the Biomek FX platform (Beckman Instruments, Fullerton, Calif.). Cells expressing the betaARR2/beta2AR PCA were incubated in cell culture medium containing drugs for 30 min., 90 min., and 8 hours. […] Cells were subsequently rinsed with HBSS (Invitrogen) and maintained in the same buffer during image acquisition. […] All treatment conditions were run in duplicate yielding a total of 8 images for each wavelength and treatment condition.
For these high-content assays, image analysis is needed to convert the acquired images into fluorescence intensity and, if desired, to resolve the subcellular distribution of the fluorescence signal. […] Raw images in 16-bit grayscale TIFF format were analyzed using ImageJ API/library as described in the literature. […] Next a threshold was established to separate the foreground from background. An iterative algorithm based on Particle Analyzer from ImageJ was applied to the thresholded Hoechst channel image (HI) to obtain the total cell count. The nuclear region of a cell (nuclear mask) was also derived from the thresholded HI. A WGA mask was generated similarly from the thresholded Texas Red image. […] To calculate the global background (gBG), a histogram was obtained from the un-thresholded YI and the pixel intensity of the lowest intensity peak was identified as gBG. […] The mean pixel intensity for all positive particles within each defined sub-region was calculated, resulting in 4 parameters: total positive pixel mean (MT, the mean intensity of the total particle fluorescence); Hoechst mean (M1, the mean intensity of the Hoechst defined region); Texas Red mean (M2, the mean intensity of the WGA-defined region); and Subtracted mean (M3, the mean intensity of the pixels excluded from the WGA- and Hoechst-defined regions). All means were corrected for the corresponding gBG.
For each set of experiments (assay+drug treatment+treatment time), positive pixel data from eight images were pooled. For each parameter, an outlier filter was applied to filter out those particles falling outside the range (mean±3SD) of the group. Next the sample mean or control mean for each parameter was obtained from each filtered group.

| Molecule | fluorescence intensity of the YFP channel as percent of control, later time points (FIG. 10) [2] | beta-arrestin2/ubiquitin assay fluorescence, positive pixel mean (PPM) as percent of control (FIG. 12) [1] | further results |
| --- | --- | --- | --- |
| CCCC[C@@H](C=O)NC(=O)[C@H](CC(C)C)NC(=O)[C@H](CC(C)C)NC(C)=O [ALLN] (Ac-Leu-Leu-[Nle]-aldehyde) |  |  | beta-arrestin2/ubiquitin PCA signal with proteasome inhibitor (FIG. 11) ([1]; transient transfection, absence of isoproterenol, ALLN at Table 3 concentration): clearly visible in the presence of ALLN; also recorded: Signal was apparent only in the presence |
| Cc1ccc(S(=O)(=O)/C=C/C#N)cc1 [BAY 11-7082] | had effects only at later time points |  |  |
| CC(C)C[C@@H](C=O)NC(=O)[C@H](CC(C)C)NC(=O)[C@H](CC(C)C)NC(=O)OCc1ccccc1 [MG132] (Cbz-Leu-Leu-Leu-aldehyde) |  | significantly increased the assay signal; also recorded: increased the signal fourfold |  |
| CC(/C=C/C(=O)NO)=C\[C@@H](C)C(=O)c1ccc(N(C)C)cc1 [Trichostatin A] |  | significantly increased the assay signal; also recorded: increased the signal fourfold |  |
| CC(C)NCC(O)c1ccc(O)c(O)c1 (stereo not drawn) [isoproterenol] |  |  | beta-arrestin2/ubiquitin PCA fluorescence intensity after agonist (FIG. 11) ([1]; in the presence of ALLN, 60-120 minutes): caused a significant increase in fluorescence intensity; also recorded: caused a significant increase in signal |
| pertussis toxin | had effects only at later time points |  |  |
